Measured values: patent US20250263376A1, “(E)-N-CINNAMOYLAMINOALKANOLS WITH MELANOGENESIS INHIBITORY ACTIVITY” (Uniwersytet Jagiellonski, priority 2024, published 2025)

How the values were obtained:
[1] = tested on: fibroblasts (BJ); assay: Safety, MTT test in fibroblasts; assay type: cell-based; details: 48 hours
Procedure: (§1) In order to test the safety of the compounds, both normal human cells were used: keratinocytes (HaCaT), fibroblasts (BJ), primary melanocytes that occur in the skin, as well as human cancer cells: the hepatocarcinoma line HepG2 and the neuroblastoma line SH-SY5Y, which are considered a model for the assessment of hepatocytotoxicity and neurocytotoxicity. The concentrations of the tested compounds in the range of […] were used in the studies. The cell lines used in the research were purchased from the American Type Culture Collection (ATCC) and were cultured in media recommended by the manufacturer with the addition of FBS and antibiotics in an incubator ensuring appropriate culture conditions, i.e. humidity, temperature and CO2 concentration. Cells were seeded into multiwell plates and incubated with the test compounds for 48 hours. After this time, MTT and LDH tests were performed to assess cell viability. The MTT test is based on the ability to transform the substrate: [3-(4,5-dimethyl-2-thiazolyl)-2,5-diphenyl-2H-tetrazolium bromide into a colored product only by living cells. The absorbance at 570 nm, which corresponds to the absorption maximum for the product, is directly proportional to cell viability. The LDH test is based on testing the activity of the enzyme lactate dehydrogenase in the culture medium, which is released from cells as a result of damage to the cell membrane, e.g. as a result of cell death. Triton X-100 was used as a positive control in the test. The determination is colorimetric, the substrate is transformed by the released enzyme into a colored product, an increase in absorbance indicates a larger amount of the released enzyme, and thus confirms greater damage to cell membranes. Tables 7 and 8 present the results obtained, which correspond to the viability of cells incubated with the compounds in relation to the viability of cells constituting a control sample, i.e. incubated with the solvent (DMSO) at the same concentration as in the case of the groups tested in the MTT test or in relation to the results obtained for the Triton X-100 positive control in the LDH test. They indicate that the compounds are safe at the concentrations tested.

[2] = tested on: neuroblastoma SH-SY5Y; assay: Safety, MTT test in SH-SY5Y; assay type: cell-based; details: 48 hours
Procedure: as §1

[3] = tested on: keratinocytes (HaCaT); assay: Safety, MTT test in keratinocytes; assay type: cell-based; details: 48 hours
Procedure: as §1

[4] = tested on: Balb/c 3T3 murine fibroblast cell line; assay: Phototoxicity, neutral red uptake in Balb/c 3T3 fibroblasts
Procedure: d) Phototoxicity Assessment Using the Balb/c 3T3 Murine Fibroblast Cell Line
Balb/c 3T3 cells, which are an immortalized murine fibroblast cell line, were purchased at ATTC and cultured in the medium recommended by the manufacturer (DMEM GlutaMAX, newborn calf serum (BCS), antibiotics). After multiplication, cells were placed in 96-well plates, which were incubated for 24 hours, after which all wells of the plates were washed with 150 μL of balanced salt solution (HBSS). Then, after drying the plates, 100 μL of a solution of the tested compounds in HBSS with 2% FBS was added to each well and incubated for an hour. After this time, some of the plates were irradiated using the Suntest CPS+sunlight simulator from Atlas with appropriate filters cutting off radiation with a wavelength <320 nm (UVA radiation intensity 5 J/cm^2). The second part of the plates was placed in radiation-free conditions for the same period of time. After the exposure time, the liquid was removed from all plates and the wells were washed twice with 150 μL of HBSS, then supplemented with fresh culture medium and incubated for 24 hours in an incubator (37° C., 5% CO2). Viability was assessed in the neutral red uptake test, which is based on the ability of the dye to penetrate only into living cells. Dye uptake was confirmed by absorbance measurement at 540 nm. […] The appropriate coefficients were also calculated: mean phototoxic effect (MPE) and photoirritation factor (PIF). PIF is the ratio of the IC50 values of unirradiated to irradiated cells, while MPE is based on the comparison of concentration-response curves.

[5] = tested on: hepatocarcinoma HepG2; assay: Safety, MTT test in HepG2; assay type: cell-based; details: 48 hours
Procedure: as §1

[6] = tested on: primary melanocytes; assay: Safety, MTT test in primary melanocytes; assay type: cell-based; details: 48 hours
Procedure: as §1

[7] = tested on: fibroblasts (BJ); assay: Safety, LDH test in fibroblasts; assay type: cell-based; details: 48 hours, vs Triton X-100
Procedure: as §1

[8] = tested on: keratinocytes (HaCaT); assay: Safety, LDH test in keratinocytes; assay type: cell-based; details: 48 hours, vs Triton X-100
Procedure: as §1

[9] = tested on: primary melanocytes; assay: Safety, LDH test in primary melanocytes; assay type: cell-based; details: 48 hours, vs Triton X-100
Procedure: as §1

[10] = tested on: S. typhimurium TA1535; assay: Ames microplate test, TA1535;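 also: bacteria exposed 90 min at 37 °C in exposure medium, then 48 h in indicator medium in 384-well plates, yellow (revertant) wells counted per condition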
[11] = tested on: hepatocarcinoma HepG2; assay: Safety, LDH test in HepG2; assay type: cell-based; details: 48 hours, vs Triton X-100
Procedure: as §1

[12] = tested on: S. typhimurium TA1537; assay: Ames microplate test, TA1537; assay type: cell-based, Salmonella typhimurium
Procedure: Bacteria were grown overnight in growth medium.

## O=C(/C=C/c1ccc(Cl)cc1)NCCCCCO [Compound A-111, (2E)-3-(4-chlorophenyl)-N-(5-hydroxypentyl)prop-2-enamide]
[1]; 100 μM
  MTT, Fibroblasts (BJ): 99.88 ± 5.25 % of solvent control
[1]; 150 μM
  MTT, Fibroblasts (BJ): 100.94 ± 3.37 % of solvent control
[1]; 200 μM
  MTT, Fibroblasts (BJ): 98.94 ± 4.04 % of solvent control
[1]; 250 μM
  MTT, Fibroblasts (BJ): 94.51 ± 5.03 % of solvent control
[2]; 100 μM
  MTT, Neuroblastoma SH-SY5Y: 100.14 ± 3.22 % of solvent control
[2]; 150 μM
  MTT, Neuroblastoma SH-SY5Y: 99.32 ± 3.36 % of solvent control
[2]; 200 μM
  MTT, Neuroblastoma SH-SY5Y: 100.55 ± 2.31 % of solvent control
[2]; 250 μM
  MTT, Neuroblastoma SH-SY5Y: 99.93 ± 4.36 % of solvent control
[3]; 100 μM
  MTT, Keratinocytes (HaCaT): 101.68 ± 3.45 % of solvent control
[3]; 150 μM
  MTT, Keratinocytes (HaCaT): 101.56 ± 1.94 % of solvent control
[3]; 200 μM
  MTT, Keratinocytes (HaCaT): 101.04 ± 2.77 % of solvent control
[3]; 250 μM
  MTT, Keratinocytes (HaCaT): 91.57 ± 2.10 % of solvent control
[4]
  phototoxic potential: do not have phototoxic potential
[4]; ratio of IC50 of unirradiated to irradiated cells
  PIF (photoirritation factor): No phototoxicity
[4]; with and without UVA exposure
  cytotoxicity towards mouse fibroblasts: devoid of cytotoxicity
[5]; 100 μM
  MTT, Hepatocarcinoma HepG2: 101.10 ± 6.01 % of solvent control
[5]; 150 μM
  MTT, Hepatocarcinoma HepG2: 97.87 ± 3.27 % of solvent control
[5]; 200 μM
  MTT, Hepatocarcinoma HepG2: 98.19 ± 3.27 % of solvent control
[5]; 250 μM
  MTT, Hepatocarcinoma HepG2: 96.27 ± 2.57 % of solvent control
[6]; 100 μM
  MTT, Primary melanocytes: 104.51 ± 1.19 % of solvent control
[6]; 150 μM
  MTT, Primary melanocytes: 103.09 ± 1.79 % of solvent control
[6]; 200 μM
  MTT, Primary melanocytes: 99.25 ± 1.92 % of solvent control
[6]; 250 μM
  MTT, Primary melanocytes: 93.39 ± 1.60 % of solvent control
[7]; 100 μM
  LDH, Fibroblasts (BJ): 5.25 percentage of positive control
[7]; 150 μM
  LDH, Fibroblasts (BJ): 5.37 percentage of positive control
[7]; 200 μM
  LDH, Fibroblasts (BJ): 8.43 percentage of positive control
[7]; 250 μM
  LDH, Fibroblasts (BJ): 14.90 percentage of positive control
[8]; 100 μM
  LDH, Keratinocytes (HaCaT): 4.69 percentage of positive control
[8]; 150 μM
  LDH, Keratinocytes (HaCaT): 4.43 percentage of positive control
[8]; 200 μM
  LDH, Keratinocytes (HaCaT): 6.49 percentage of positive control
[8]; 250 μM
  LDH, Keratinocytes (HaCaT): 13.55 percentage of positive control
[9]; 100 μM
  LDH, Primary melanocytes: 3.31 percentage of positive control
[9]; 150 μM
  LDH, Primary melanocytes: 4.95 percentage of positive control
[9]; 200 μM
  LDH, Primary melanocytes: 13.38 percentage of positive control
[9]; 250 μM
  LDH, Primary melanocytes: 18.41 percentage of positive control
[10]; 0.5 mM, + S9
  Increase in the number of yellow wells compared to the reference level, TA1535: 0.58
[10]; 0.5 mM, without S9
  Increase in the number of yellow wells compared to the reference level, TA1535: 0.55
[10]; 1.0 mM, + S9
  Increase in the number of yellow wells compared to the reference level, TA1535: 0.35
[10]; 1.0 mM, without S9
  Increase in the number of yellow wells compared to the reference level, TA1535: 0.18
[10]; 2.0 mM, + S9
  Increase in the number of yellow wells compared to the reference level, TA1535: 0.23
[10]; 2.0 mM, without S9
  Increase in the number of yellow wells compared to the reference level, TA1535: 1.65
[11]; 100 μM
  LDH, Hepatocarcinoma HepG2: 4.90 percentage of positive control
[11]; 150 μM
  LDH, Hepatocarcinoma HepG2: 4.73 percentage of positive control
[11]; 200 μM
  LDH, Hepatocarcinoma HepG2: 5.48 percentage of positive control
[11]; 250 μM
  LDH, Hepatocarcinoma HepG2: 9.75 percentage of positive control
[12]; 0.5 mM, + S9
  Increase in the number of yellow wells compared to the reference level, TA1537: 0.27
[12]; 0.5 mM, without S9
  Increase in the number of yellow wells compared to the reference level, TA1537: 0.80
[12]; 1.0 mM, + S9
  Increase in the number of yellow wells compared to the reference level, TA1537: 0.45
[12]; 1.0 mM, without S9
  Increase in the number of yellow wells compared to the reference level, TA1537: 0.54
[12]; 2.0 mM, + S9
  Increase in the number of yellow wells compared to the reference level, TA1537: 0.27
[12]; 2.0 mM, without S9
  Increase in the number of yellow wells compared to the reference level, TA1537: 0.54

## Cc1ccc(/C=C/C(=O)NCCCCCO)cc1 [H-415/21, (2E)-N-(5-hydroxypentyl)-3-(4-methylphenyl)prop-2-enamide]
[1]; 100 μM
  MTT, Fibroblasts (BJ): 102.12 ± 2.71 % of solvent control
[1]; 150 μM
  MTT, Fibroblasts (BJ): 101.92 ± 2.88 % of solvent control
[1]; 200 μM
  MTT, Fibroblasts (BJ): 96.13 ± 3.64 % of solvent control
[1]; 250 μM
  MTT, Fibroblasts (BJ): 92.86 ± 4.30 % of solvent control
[2]; 100 μM
  MTT, Neuroblastoma SH-SY5Y: 100.68 ± 4.63 % of solvent control
[2]; 150 μM
  MTT, Neuroblastoma SH-SY5Y: 99.32 ± 2.96 % of solvent control
[2]; 200 μM
  MTT, Neuroblastoma SH-SY5Y: 100.27 ± 3.50 % of solvent control
[2]; 250 μM
  MTT, Neuroblastoma SH-SY5Y: 101.71 ± 2.38 % of solvent control
[3]; 100 μM
  MTT, Keratinocytes (HaCaT): 101.11 ± 2.03 % of solvent control
[3]; 150 μM
  MTT, Keratinocytes (HaCaT): 101.78 ± 2.32 % of solvent control
[3]; 200 μM
  MTT, Keratinocytes (HaCaT): 100.88 ± 1.40 % of solvent control
[3]; 250 μM
  MTT, Keratinocytes (HaCaT): 88.54 ± 3.74 % of solvent control
[5]; 100 μM
  MTT, Hepatocarcinoma HepG2: 100.32 ± 1.75 % of solvent control
[5]; 150 μM
  MTT, Hepatocarcinoma HepG2: 99.54 ± 5.74 % of solvent control
[5]; 200 μM
  MTT, Hepatocarcinoma HepG2: 100.53 ± 3.98 % of solvent control
[5]; 250 μM
  MTT, Hepatocarcinoma HepG2: 98.90 ± 4.21 % of solvent control
[6]; 100 μM
  MTT, Primary melanocytes: 103.27 ± 1.88 % of solvent control
[6]; 150 μM
  MTT, Primary melanocytes: 99.89 ± 2.43 % of solvent control
[6]; 200 μM
  MTT, Primary melanocytes: 94.81 ± 2.92 % of solvent control
[6]; 250 μM
  MTT, Primary melanocytes: 87.64 ± 1.44 % of solvent control
[7]; 100 μM
  LDH, Fibroblasts (BJ): 8.81 percentage of positive control
[7]; 150 μM
  LDH, Fibroblasts (BJ): 8.75 percentage of positive control
[7]; 200 μM
  LDH, Fibroblasts (BJ): 9.82 percentage of positive control
[7]; 250 μM
  LDH, Fibroblasts (BJ): 16.63 percentage of positive control
[8]; 100 μM
  LDH, Keratinocytes (HaCaT): 2.95 percentage of positive control
[8]; 150 μM
  LDH, Keratinocytes (HaCaT): 6.70 percentage of positive control
[8]; 200 μM
  LDH, Keratinocytes (HaCaT): 10.18 percentage of positive control
[8]; 250 μM
  LDH, Keratinocytes (HaCaT): 18.19 percentage of positive control
[9]; 100 μM
  LDH, Primary melanocytes: 4.22 percentage of positive control
[9]; 150 μM
  LDH, Primary melanocytes: 6.01 percentage of positive control
[9]; 200 μM
  LDH, Primary melanocytes: 8.34 percentage of positive control
[9]; 250 μM
  LDH, Primary melanocytes: 14.94 percentage of positive control
[10]; 0.5 mM, without S9
  Increase in the number of yellow wells compared to the reference level, TA1535: 0.21
[10]; 1.0 mM, without S9
  Increase in the number of yellow wells compared to the reference level, TA1535: 0.41
[10]; 2.0 mM, without S9
  Increase in the number of yellow wells compared to the reference level, TA1535: 0.10
[11]; 100 μM
  LDH, Hepatocarcinoma HepG2: 3.90 percentage of positive control
[11]; 150 μM
  LDH, Hepatocarcinoma HepG2: 7.24 percentage of positive control
[11]; 200 μM
  LDH, Hepatocarcinoma HepG2: 8.92 percentage of positive control
[11]; 250 μM
  LDH, Hepatocarcinoma HepG2: 15.47 percentage of positive control
[12]; 0.5 mM, without S9
  Increase in the number of yellow wells compared to the reference level, TA1537: 0.33
[12]; 1.0 mM, without S9
  Increase in the number of yellow wells compared to the reference level, TA1537: 0.33
[12]; 2.0 mM, without S9
  Increase in the number of yellow wells compared to the reference level, TA1537: 0.00
